Tested on: Sprague Dawley rats
Assay: Measurement of fatigue substance in blood (creatine kinase activity in blood plasma after forced exercise)
Format: in vivo
Conditions: 2 mg per kilogram of body weight orally twice daily, five times in total, before forced exercise stress; FIG. 4
Source text: The fourth test is measurement of an amount of fatigue substance. This is described in detail below in Example 4. The test is to determine the effect of administration of the test substance on the amount of fatigue substance at the time when physical or mental stress is applied. Since the fatigue substances change according to the type, intensity, duration, or the like of fatigue that is applied, they are not clearly defined as an indicator, but creatine kinase in blood can be named as one of the candidate substances. Creatine kinase is an enzyme that catalyzes high-energy phosphoryl group transfer from creatine phosphate to ADP, and is considered to serve physiological functions of consuming creatine phosphate to supply ATP at the time of massive energy consumption, such as twitching of skeletal muscles upon instantaneous short-term exercise, in an in vivo energy system. […] It is therefore said that the level of damage on the muscle can be determined by measuring the creatine kinase activity in blood. […]
Muscle fatigue in a living body was determined using creatine kinase levels in blood as a reference index. […] Blood was taken out from a tale vein immediately after the exercise stress, and creatine kinase activity in blood plasma was measured with a biochemistry automatic analyzer (Model 7070, Hitachi High-Technologies Corporation) using an enzyme method. […]

## C=C1CC[C@@H]2[C@](C)(CO)[C@H](O)CC[C@@]2(C)[C@@H]1C/C=C1/C(=O)OC[C@H]1O [andrographolide]
  creatine kinase activity in blood plasma: decrease in creatine kinase activity was observed
